Measured values: ChEMBL document CHEMBL3885881, “DrugMatrix”

Species on record: Rattus norvegicus
Assay: DrugMatrix - Regimen: Daily Repeat
Assay type: toxicity, organism-based, Sprague-Dawley
Parameters: regimen Daily Repeat, gender Male, age 6-8 weeks
Conditions: in vivo, iv, vehicle 100 % SALINE; for ABSOLUTE BASOPHIL / ABSOLUTE EOSINOPHIL / ABSOLUTE LYMPHOCYTE / ABSOLUTE MONOCYTE / ABSOLUTE SEGMENTED NEUTROPHIL / BASOPHIL / EOSINOPHIL / ERYTHROCYTE COUNT / HEMATOCRIT / HEMOGLOBIN / LEUKOCYTE COUNT / LYMPHOCYTE / MEAN CORPUSCULAR HEMOGLOBIN / MEAN CORPUSCULAR HEMOGLOBIN CONCENTRATION / MEAN CORPUSCULAR VOLUME / MONOCYTE / NEUTROPHIL / NUCLEATED RED BLOOD CELLS / PLATELET COUNT: tissue Blood; for ALANINE AMINOTRANSFERASE / ALBUMIN / ALKALINE PHOSPHATASE / ASPARTATE AMINOTRANSFERASE / BLOOD UREA NITROGEN / CARBON DIOXIDE / CHLORIDE / CHOLESTEROL / CREATINE PHOSPHOKINASE / CREATININE / GLUCOSE / LACTATE DEHYDROGENASE / LIPASE / PHOSPHORUS / POTASSIUM / SODIUM / TOTAL BILIRUBIN / TOTAL PROTEIN / URIC ACID: tissue Plasma
[1] = 120 mg/kg, 72 h, dose level High, time 3 day
[2] = 120 mg/kg, 120 h, dose level High, time 5 day
[3] = […], 72 h, dose 8.2 mg/Kg, dose level Low, time 3 day
[4] = […], 120 h, dose 8.2 mg/Kg, dose level Low, time 5 day

`[H]/N=C(/N)N[C@H]1[C@H](O)[C@@H](O)[C@H](O[C@@H]2O[C@@H](C)[C@](O)(C=O)[C@H]2O[C@@H]2O[C@@H](CO)[C@H](O)[C@@H](O)[C@@H]2NC)[C@@H](N/C(N)=N\[H])[C@@H]1O` [STREPTOMYCIN] was tested, and the “ABSOLUTE BASOPHIL” value [1] was 0 CELLS/uL, the “ABSOLUTE EOSINOPHIL” value [1] was 272.33 CELLS/uL and the “ABSOLUTE LYMPHOCYTE” value [1] was 11274.33 CELLS/uL. The “ABSOLUTE MONOCYTE” value [1] was 397 CELLS/uL, the “ABSOLUTE SEGMENTED NEUTROPHIL” value [1] was 1289.67 CELLS/uL and the BASOPHIL [1] was 0%. For the same compound, the EOSINOPHIL [1] was 2%, the “ERYTHROCYTE COUNT” value [1] was 5.88 x10E6/uL and the HEMATOCRIT [1] was 36.13%. For the same compound, the HEMOGLOBIN [1] was 13.67 G/DL, the “LEUKOCYTE COUNT” value [1] was 13.23 x10E3/uL and the LYMPHOCYTE [1] was 85.33%. For the same compound, the “MEAN CORPUSCULAR HEMOGLOBIN” value [1] was 23.3 pg, the “MEAN CORPUSCULAR HEMOGLOBIN CONCENTRATION” value [1] was 37.8 G/DL and the “MEAN CORPUSCULAR VOLUME” value [1] was 61.53 fL. The MONOCYTE [1] was 3%, the NEUTROPHIL [1] was 9.67% and the “NUCLEATED RED BLOOD CELLS” value [1] was 0.33 /100WBC. The “PLATELET COUNT” value [1] was 1314 x10E3/uL, the “ALANINE AMINOTRANSFERASE” value [1] was 43 u/L and the ALBUMIN [1] was 4.27 G/DL. For the same compound, the “ALKALINE PHOSPHATASE” value [1] was 316.67 u/L, the “ASPARTATE AMINOTRANSFERASE” value [1] was 75.67 u/L and the “BLOOD UREA NITROGEN” value [1] was 18.33 mg/dL. For the same compound, the “CARBON DIOXIDE” value [1] was 24.67 mmol/L, the CHLORIDE [1] was 106 MEQ/L and the CHOLESTEROL [1] was 86 mg/dL. The “CREATINE PHOSPHOKINASE” value [1] was 233.67 u/L, the CREATININE [1] was 0.28 mg/dL and the GLUCOSE [1] was 150.33 mg/dL. For the same compound, the “LACTATE DEHYDROGENASE” value [1] was 355.67 u/L, the LIPASE [1] was 9 u/L and the PHOSPHORUS [1] was 12.8 mg/dL. The POTASSIUM [1] was 6.3 MEQ/L, the SODIUM [1] was 147.3 MEQ/L and the “TOTAL BILIRUBIN” value [1] was 0.23 mg/dL. For the same compound, the “TOTAL PROTEIN” value [1] was 6.03 G/DL, the “URIC ACID” value [1] was 1.3 mg/dL and the “ABSOLUTE BASOPHIL” value [2] was 0 CELLS/uL. For the same compound, the “ABSOLUTE EOSINOPHIL” value [2] was 0 CELLS/uL, the “ABSOLUTE LYMPHOCYTE” value [2] was 15247.67 CELLS/uL and the “ABSOLUTE MONOCYTE” value [2] was 224.67 CELLS/uL. The “ABSOLUTE SEGMENTED NEUTROPHIL” value [2] was 2294.33 CELLS/uL, the BASOPHIL [2] was 0% and the EOSINOPHIL [2] was 0%. For the same compound, the “ERYTHROCYTE COUNT” value [2] was 5.9 x10E6/uL, the HEMATOCRIT [2] was 36.63% and the HEMOGLOBIN [2] was 13.87 G/DL. For the same compound, the “LEUKOCYTE COUNT” value [2] was 17.77 x10E3/uL, the LYMPHOCYTE [2] was 85.33% and the “MEAN CORPUSCULAR HEMOGLOBIN” value [2] was 23.5 pg. The “MEAN CORPUSCULAR HEMOGLOBIN CONCENTRATION” value [2] was 37.83 G/DL, the “MEAN CORPUSCULAR VOLUME” value [2] was 62.1 fL and the MONOCYTE [2] was 1.33%. The NEUTROPHIL [2] was 13.33%, the “NUCLEATED RED BLOOD CELLS” value [2] was 0 /100WBC and the “PLATELET COUNT” value [2] was 1316.67 x10E3/uL. For the same compound, the “ALANINE AMINOTRANSFERASE” value [2] was 42.33 u/L, the ALBUMIN [2] was 4.33 G/DL and the “ALKALINE PHOSPHATASE” value [2] was 270 u/L. For the same compound, the “ASPARTATE AMINOTRANSFERASE” value [2] was 91 u/L, the “BLOOD UREA NITROGEN” value [2] was 18.67 mg/dL and the “CARBON DIOXIDE” value [2] was 25 mmol/L. The CHLORIDE [2] was 104 MEQ/L, the CHOLESTEROL [2] was 61 mg/dL and the “CREATINE PHOSPHOKINASE” value [2] was 601.67 u/L. For the same compound, the CREATININE [2] was 0.19 mg/dL, the GLUCOSE [2] was 177.67 mg/dL and the “LACTATE DEHYDROGENASE” value [2] was 433 u/L. It also gave an LIPASE [2] of 8.67 u/L, a PHOSPHORUS [2] of 14 mg/dL and a POTASSIUM [2] of 6.21 MEQ/L. For the same compound, the SODIUM [2] was 147.03 MEQ/L, the “TOTAL BILIRUBIN” value [2] was 0.13 mg/dL and the “TOTAL PROTEIN” value [2] was 6.3 G/DL. The “URIC ACID” value [2] was 1.83 mg/dL, the “ABSOLUTE BASOPHIL” value [3] was 0 CELLS/uL and the “ABSOLUTE EOSINOPHIL” value [3] was 0 CELLS/uL. For the same compound, the “ABSOLUTE LYMPHOCYTE” value [3] was 16010 CELLS/uL, the “ABSOLUTE MONOCYTE” value [3] was 231.33 CELLS/uL and the “ABSOLUTE SEGMENTED NEUTROPHIL” value [3] was 1025.33 CELLS/uL. The BASOPHIL [3] was 0%, the EOSINOPHIL [3] was 0% and the “ERYTHROCYTE COUNT” value [3] was 6.28 x10E6/uL. For the same compound, the HEMATOCRIT [3] was 40.03%, the HEMOGLOBIN [3] was 14.6 G/DL and the “LEUKOCYTE COUNT” value [3] was 17.27 x10E3/uL. The LYMPHOCYTE [3] was 92.67%, the “MEAN CORPUSCULAR HEMOGLOBIN” value [3] was 23.33 pg and the “MEAN CORPUSCULAR HEMOGLOBIN CONCENTRATION” value [3] was 36.47 G/DL. The “MEAN CORPUSCULAR VOLUME” value [3] was 63.9 fL, the MONOCYTE [3] was 1.33% and the NEUTROPHIL [3] was 6%. The “NUCLEATED RED BLOOD CELLS” value [3] was 0 /100WBC, the “PLATELET COUNT” value [3] was 1313.67 x10E3/uL and the “ALANINE AMINOTRANSFERASE” value [3] was 51.67 u/L. For the same compound, the ALBUMIN [3] was 4.5 G/DL, the “ALKALINE PHOSPHATASE” value [3] was 417.33 u/L and the “ASPARTATE AMINOTRANSFERASE” value [3] was 82.67 u/L. For the same compound, the “BLOOD UREA NITROGEN” value [3] was 13.67 mg/dL, the “CARBON DIOXIDE” value [3] was 23 mmol/L and the CHLORIDE [3] was 105.33 MEQ/L. For the same compound, the CHOLESTEROL [3] was 84 mg/dL, the “CREATINE PHOSPHOKINASE” value [3] was 198.33 u/L and the CREATININE [3] was 0.22 mg/dL. For the same compound, the GLUCOSE [3] was 155.33 mg/dL, the “LACTATE DEHYDROGENASE” value [3] was 234 u/L and the LIPASE [3] was 9 u/L. The PHOSPHORUS [3] was 14.77 mg/dL, the POTASSIUM [3] was 7.14 MEQ/L and the SODIUM [3] was 148.8 MEQ/L. For the same compound, the “TOTAL BILIRUBIN” value [3] was 0.2 mg/dL, the “TOTAL PROTEIN” value [3] was 6.33 G/DL and the “URIC ACID” value [3] was 2.1 mg/dL. The “ABSOLUTE BASOPHIL” value [4] was 0 CELLS/uL, the “ABSOLUTE EOSINOPHIL” value [4] was 277 CELLS/uL and the “ABSOLUTE LYMPHOCYTE” value [4] was 11716.67 CELLS/uL. For the same compound, the “ABSOLUTE MONOCYTE” value [4] was 225 CELLS/uL, the “ABSOLUTE SEGMENTED NEUTROPHIL” value [4] was 1048 CELLS/uL and the BASOPHIL [4] was 0%. The EOSINOPHIL [4] was 2%, the “ERYTHROCYTE COUNT” value [4] was 5.69 x10E6/uL and the HEMATOCRIT [4] was 36.1%. The HEMOGLOBIN [4] was 13.83 G/DL, the “LEUKOCYTE COUNT” value [4] was 13.27 x10E3/uL and the LYMPHOCYTE [4] was 88.67%. For the same compound, the “MEAN CORPUSCULAR HEMOGLOBIN” value [4] was 24.27 pg, the “MEAN CORPUSCULAR HEMOGLOBIN CONCENTRATION” value [4] was 38.33 G/DL and the “MEAN CORPUSCULAR VOLUME” value [4] was 63.43 fL. The MONOCYTE [4] was 1.67%, the NEUTROPHIL [4] was 7.67% and the “NUCLEATED RED BLOOD CELLS” value [4] was 0 /100WBC. The “PLATELET COUNT” value [4] was 1319.67 x10E3/uL, the “ALANINE AMINOTRANSFERASE” value [4] was 44 u/L and the ALBUMIN [4] was 4.43 G/DL. For the same compound, the “ALKALINE PHOSPHATASE” value [4] was 308.33 u/L, the “ASPARTATE AMINOTRANSFERASE” value [4] was 87.33 u/L and the “BLOOD UREA NITROGEN” value [4] was 20.67 mg/dL. The “CARBON DIOXIDE” value [4] was 24.33 mmol/L, the CHLORIDE [4] was 106.67 MEQ/L and the CHOLESTEROL [4] was 58.67 mg/dL. For the same compound, the “CREATINE PHOSPHOKINASE” value [4] was 307 u/L, the CREATININE [4] was 0.18 mg/dL and the GLUCOSE [4] was 143 mg/dL. The “LACTATE DEHYDROGENASE” value [4] was 514.33 u/L, the LIPASE [4] was 9 u/L and the PHOSPHORUS [4] was 12.6 mg/dL. For the same compound, the POTASSIUM [4] was 6.63 MEQ/L, the SODIUM [4] was 147.1 MEQ/L and the “TOTAL BILIRUBIN” value [4] was 0.17 mg/dL. For the same compound, the “TOTAL PROTEIN” value [4] was 6.27 G/DL and the “URIC ACID” value [4] was 1.5 mg/dL.
